Paper PMC11243039, “Antimicrobial, Antioxidant, and Antityrosinase Activities of Morina persica L. and Its Isolated Compounds” (Molecules, 2024)
≈ marks a conversion by molar mass, not a printed value.

Biological target: T1, mushroom tyrosinase
T1 construct: gene PPO3; native mushroom enzyme preparation
Assay: absorbance at […] nm, L-DOPA oxidation (modified Masuda method)
Type: biochemical
Settings: L-DOPA substrate, phosphate buffer pH 6.8, 23 °C, 10 min preincubation

Row | IC50 [µg/mL] | Structure (SMILES)
1 | 115.2 ± 0.8 (≈ 189 µM) | C[C@@H]1O[C@@H](OC[C@H]2O[C@@H](Oc3c(-c4ccc(O)c(O)c4)oc4cc(O)cc(O)c4c3=O)[C@H](O)[C@@H](O)[C@@H]2O)[C@H](O)[C@H](O)[C@H]1O [MP-2, Quercetin-3-O-rutinoside]
2 | 297.9 ± 1.2 (≈ 664 µM) | O=c1c(O[C@@H]2O[C@H](CO)[C@@H](O)[C@H](O)[C@H]2O)c(-c2ccc(O)cc2)oc2cc(O)cc(O)c12 [MP-1, Kaempferol-3-O-β-glucopyranoside]
